For orientation: melting point means the temperature of the solid-liquid transition.

“And” between values parts separate entries of the source, which are not always exact repeats. Identical values can stand only once. Counter-ions that a name gives are not always drawn.

Experimental findings from US9464071B2 (priority 2010, dated 2016) are described below.

Regarding `COc1cc(OC)cc(N(C[C@@H](O)CN2CC[C@H](C#N)C2)c2ccc3ncc(-c4cnn(C)c4)nc3c2)c1` [Compound 526], the melting point is 234.8 °C.
As to `COc1cc(OC)cc(N(CCN2CCOCC2)c2ccc3ncc(-c4cnn(C)c4)nc3c2)c1` [Compound 299], the melting point worked out at 201 °C.
To `COc1cc(OC)cc(N(CC2CO2)c2ccc3ncc(-c4cnn(C)c4)nc3c2)c1` (centres unmarked) belongs 158.57 °C.
Molecule `COc1cc(OC)cc(N(c2ccc3ncc(-c4cnn(C)c4)nc3c2)[C@H]2CC[C@H](NC(C)C)CC2)c1` came in with a melting point of 107 °C.
Consider `COc1cc(OC)cc(N(CC#Cc2cc(Cl)nc(N)n2)c2ccc3ncc(-c4cnn(C)c4)nc3c2)c1`, for which the melting point came to 220 °C.
Molecule `COc1cc(OC)cc(N(CCN2CCN(CCO)CC2)c2ccc3ncc(-c4cnn(C)c4)nc3c2)c1` [Compound 528] came in with a melting point of 110.16 °C.
Consider `COc1cc(OC)cc(N(CC#Cc2cccc(N)n2)c2ccc3ncc(-c4cnn(C)c4)nc3c2)c1`, for which the melting point is 203 °C.
Turning to `CCOc1cc(F)cc(N(CCO)c2ccc3ncc(-c4cnn(C)c4)nc3c2)c1` [Compound 401], the melting point was found to be 138 °C.
To `CONCCN(c1cc(OC)cc(OC)c1)c1ccc2ncc(-c3cnn(C)c3)nc2c1` belongs 177 °C.
For the molecule `c1ccc(N(CC2CC2)c2ccc3ncc(-c4cn[nH]c4)nc3c2)cc1` [Compound 54], the melting point came out at 138 °C.
To `COc1cc(OC)cc(N(CCNC2CC(C)(C)NC(C)(C)C2)c2ccc3ncc(-c4cnn(C)c4)nc3c2)c1` belongs 80 °C.
To `COc1ccnc(C#CCN(c2ccc3ncc(-c4cnn(C)c4)nc3c2)c2c(Cl)c(OC)cc(OC)c2Cl)n1` belongs 130 °C; to `COc1cc(OC)cc(N(CCCN2CCCC2)c2ccc3ncc(-c4cnn(CCS(C)(=O)=O)c4)nc3c2)c1` [Compound 295], 155.31 °C.
`COc1cc(OC)cc(N(C[C@@H](O)C(F)(F)F)c2ccc3ncc(-c4cnn(CCCN)c4)nc3c2)c1` [Compound 660, 3-[{3-[1-(3-Aminopropyl)-1H-pyrazol-4-yl]quinoxalin-6-yl}(3,5-dimethoxyphenyl)amino]-1,1,1-trifluoropropan-2-ol] yielded a melting point of 151 °C.
`COc1cc(OC)cc(N(CC#Cc2nccs2)c2ccc3ncc(-c4cnn(C)c4)nc3c2)c1` displayed a melting point of 167 °C.
The molecule `CNCC(O)CN(c1cc(OC)cc(OC)c1)c1ccc2ncc(-c3cnn(C)c3)nc2c1` (centres unmarked) (as salt: HCl) yielded a melting point of 224 °C.
To `COc1cc(OC)cc(N(Cc2ccc(Cl)s2)c2ccc3ncc(-c4cnn(Cc5ccc(Cl)s5)c4)nc3c2)c1` belongs 131.39 °C; to `COc1cc(OC)cc(N(CC(N)=O)c2ccc3ncc(-c4cnn(C)c4)nc3c2)c1`, 264 °C and 260.14 °C; to `COc1cc(OC)cc(N(CCN2CCC(F)(F)CC2)c2ccc3ncc(-c4cnn(C)c4)nc3c2)c1` [Compound 431], 147.77 °C.
To `COc1cc(OC)cc(N(CCN(C)C(C)C)c2ccc3ncc(-c4cnn(C)c4)nc3c2)c1` belongs 126 °C; to `COc1cc(OC)cc(N(CCCn2cc(C)nc2C)c2ccc3ncc(-c4cnn(C)c4)nc3c2)c1` (as salt: HCl), 157 °C.
Turning to `COc1cc(OC)cc(N(c2ccc3ncc(-c4cnn(C)c4)nc3c2)C2COC2)c1`, the melting point was 160.14 °C and 164 °C.
Turning to `COc1cc(OC)cc(N(CCP(=O)(O)O)c2ccc3ncc(-c4cnn(C)c4)nc3c2)c1` (as salt: HBr), the melting point was above 260 °C.
`COc1cc(OC)cc(N(CC2CC2)c2ccc3ncc(-c4cnn(CCN5CCN(CCO)CC5)c4)nc3c2)c1`: the melting point worked out at 146.13 °C.
The same measure for `COc1cc(OC)cc(N(CC#CC2(O)CCNCC2)c2ccc3ncc(-c4cnn(C)c4)nc3c2)c1`: 167 °C.
The same measure for `COc1cc(OC)cc(N(CC2CC2)c2ccc3ncc(-c4cnn(CCNS(C)(=O)=O)c4)nc3c2)c1` [Compound 271]: 181.91 °C; for `COc1cc(OC)cc(N(CCN(Cc2ccc(N)cc2)C(C)C)c2ccc3ncc(-c4cnn(C)c4)nc3c2)c1` [Compound 658]: 152 °C; for `COc1cc(OC)cc(N(CC2CNC(=O)O2)c2ccc3ncc(-c4cnn(C)c4)nc3c2)c1` (centres unmarked): 157 °C.
In the case of `COc1cc(OC)cc(N(CC2CN(Cc3ccccc3)CCO2)c2ccc3ncc(-c4cnn(C)c4)nc3c2)c1` (centres unmarked), the melting point worked out at 134 °C.
`COc1cc(OC)cc(N(CCC(=O)N(C)OC)c2ccc3ncc(-c4cnn(C)c4)nc3c2)c1` [Compound 633] gave a melting point of 130 °C.
Molecule `COc1cc(OC)cc(N(CC2CC2)c2ccc3ncc(-c4cnn(C5CCN(S(C)(=O)=O)CC5)c4)nc3c2)c1` yielded a melting point of 200 °C.
Turning to `COc1cc(OC)cc(N(CC(O)C(F)(F)F)c2ccc3ncc(-c4cnn(C)c4)nc3c2)c1` (single isomer, unassigned) [Compound 149, (2S*)-3-{(3,5-Dimethoxyphenyl)[3-(1-methyl-1H-pyrazol-4-yl)quinoxalin-6-yl]amino}-1,1,1-trifluoropropan-2-ol], the melting point is 146.61 °C.
Molecule `COc1cc(OCCO)cc(N(CCCO)c2ccc3ncc(-c4cnn(C)c4)nc3c2)c1` came in with a melting point of 80 °C.
`COc1cc(OC)cc(N(CCCN)c2ccc3ncc(-c4cnn(C)c4)nc3c2)c1` [Compound 93, N-(3,5-Dimethoxyphenyl)-N-[3-(1-methyl-1H-pyrazol-4-yl)quinoxalin-6-yl]propane-1,3-diamine]: the melting point was 175.51 °C and 178 °C.
For `COc1cc(OC(C)C)cc(N(CC2CC2)c2ccc3ncc(-c4cnn(C)c4)nc3c2)c1` [Compound 269], the melting point worked out at 155.79 °C.
In the case of `COc1cc(OC)cc(N(CCCNS(C)(=O)=O)c2ccc3ncc(-c4cnn(C)c4)nc3c2)c1` [Compound 48], the melting point is 189 °C and 189.27 °C.
For the molecule `COc1cc(OCCO)cc(N(CC2CC2)c2ccc3ncc(-c4cn[nH]c4)nc3c2)c1`, the melting point worked out at 80 °C.
To `COc1cc(OC)cc(N(CCCN2CCC[C@@H]2CC#N)c2ccc3ncc(-c4cnn(C)c4)nc3c2)c1` (as salt: HCl) belongs 140 °C.
